Values joined by “and” are separate entries in the source; they are usually repeats but may differ in a detail not shown here. Identical values can stand only once.
How the values were obtained:
[1] = Feeding study, daily gavage for 30 days: fatty acid and DHA lipid species of plasma, liver, heart, adipose tissue and brain regions
[2] = Intestinal absorption of micellar DHA into lymph (HDL, chylomicrons; PC, TAG) in rats with lymph duct cannulation; format: in vivo, Sprague-Dawley rats
Experimental: Two types of micelle, one containing the DHA as free fatty acid, and the other containing the DHA as LPC, were prepared by sonication. All components except taurocholate were added as chloroform solutions to a glass tube and the solvent was evaporated under nitrogen. Then 10 ml of sodium taurocholate solution (12 mM, in PBS, pH 7.4) was added to the tube and the lipids dispersed by vortexing for 1 min. The mixture was then sonicated in a Sonics Vibro Cell sonicator at 40% setting for four 30 sec pulses at 1 min intervals, while the tube was immersed in ice. The resulting micelle were optically clear, and were used immediately for infusion into rats.
Thoracic lymph duct cannulation was carried out as described with slight modifications. The rats were fasted overnight before the procedure. Under analgesics and isoflurane anesthesia, the abdomen was opened, the dorsal parietal peritoneum was incised, and the aorta was dissected free from the surrounding muscle and thoracic duct. The duct was cannulated (3-5 mm) with a heparin (500 units/ml) and saline-rinsed, pre-cut catheter (16 gauge, BD Angiocath). Following insertion, the catheter was connected to ‘U” shaped secured Silastic Laboratory tubing to prevent displacement or dislodgement. Micelle (10 ml) were infused at a rate of 3 ml/h into the duodenum (Harvard pump) through a second catheter positioned into the duodenum, followed by the infusion of 10 ml PBS, at 3 ml/h. The abdomen was closed and the lymph was collected for 6 h, in 30 min fractions into tubes containing 1.0 ml of PBS, while the animal was under anesthesia. The body temperature of the animal was maintained at 37° C. with the help of a heating pad.
The volume of each lymph fraction was made up to 2.0 ml with PBS, containing 1 mM EDTA (final). The density of lymph fraction was raised to 1.063 g/ml by the addition of KBr and centrifuged at 100,000×g for 4 h at 4° C. in the TLA 100.3 rotor of the Beckman TL-100 ultracentrifuge. One ml of the bottom layer was aspirated to a new tube (HDL) and the remaining 1.0 ml was taken as the chylomicrons (CM).
Extraction and Analysis of Lipids. The total lipids of HDL and CM were extracted by the Bligh and Dyer method after spiking the samples with 25 μg each of 15:0-15:0-15:0 TAG and 17:0-17:0 PC. The lipid extract was applied to an aminopropyl silica cartridge (100 mg) in 1 ml of chloroform under gravity, and the cartridge was washed with chloroform (2×1.0 ml) to elute the TAG and cholesteryl esters. […] The PC was then eluted with 2.0 ml of chloroform: methanol (3:2, v/v)).
The temperature program was as follows: 165° C. for 1 min, raised to 210° C. at the rate of 6.5° C./min, followed by raising to 240° C. at the rate of 3.5° C./min, and maintaining at 240° C. for 10 min. The total analysis time was 26.5 min. The injection temperature was 250° C., ion source temperature 230° C. and the interface temperature was 250° C. […] The identification of individual FAME was done by comparison of retention times with the standard mixture (PUFA2, Sigma) as well as by the characteristic fragment ions (m/z 74 for saturated, m/z 55 for monounsaturated, m/z 67 for diunsaturated, and m/z 79 for polyunsaturated).

normal adult mice = assay: Morris water maze test; format: in vivo, C57BL/6 mice; settings: for latency time to the previous platform area / time in the target quadrant: n=5; for finding the previous platform area, faster than the control and free DHA groups / time spent in the target quadrant versus control and free DHA groups: study 1, probe trial
[3] = cited from earlier work
[4] = ref [32]; cited from earlier work
BDNF [5] = assay: BDNF levels in the brain after feeding free EPA or LPC-EPA; format: in vivo, Mice; settings: 1 mg EPA/day for 15 days
Experimental: The compounds were dispersed in corn oil (80 μl) and fed daily by gavge. Results are shown in e.g. […]. […] See e.g. FIGS. 23A-23C.

[6] = Feeding free EPA or LPC-EPA for 15 days: omega 3 fatty acids and arachidonic acid in tissues; format: in vivo, Mice; settings: 1 mg EPA/day for 15 days
[7] = as above; format: in vivo, Mice; settings: oral; for all three n-3 fatty acids in the liver / decrease in liver arachidonic acid level / decrease of brain content of arachidonic acid: 15 days; for increase of brain DHA content: corn oil gavage
Experimental: Mice were fed oral preparations of free EPA or LPC-EPA at about 1 mg/kg per day for 15 days. The compounds were dispersed in corn oil (80 μl) and fed daily by gavge.

BDNF [8] = assay: BDNF concentration in the brain regions by ELISA; format: in vivo, C57BL/6 mice; settings: 1 mg DHA/day, 30 days, n=6
Source text: Therefore, we determined BDNF concentration in the brain regions by ELISA to complement our MWM data.

[9] = Isomerization / isomer stability of LPC-DHA; format: physicochemical
Experimental: LPC-DHA was prepared by the hydrolysis of 16:0-22:6 PC by immobilized Mucor lipase (Lipozyme) by a modification of the published procedure. Briefly, 100 mg of Lipozyme was added to 50 mg of 16:0-22:6 PC dissolved in 1 ml of 95:5 (v/v) ethanol: water. The reaction mixture was incubated at 37° C. for 72 h under nitrogen with shaking. The reaction mixture was dried under nitrogen and extracted with 4 ml of ethanol: water: hexane (2:1:1, by vol) mixture to remove the free fatty acid. The lower layer was concentrated under nitrogen and extracted by Bligh and Dyer procedure. The final sample contained 95% LPC, the rest being unhydrolyzed PC, as determined by lipid phosphorus estimation after TLC separation. Although this enzyme produces sn-2 22:6 LPC, this isomer is unstable, and is non-enzymatically isomerized to sn-1-22:6 LPC [24,25].
sn-2 DHA LPC was prepared by the hydrolysis of 16:0-22:6 PC with immobilized Mucor lipase (Lipozyme) by a modification of the published procedure^44. […] The preparation contained >95% of lipid phosphorus in LPC DHA and the rest in unhydrolyzed PC, as determined by TLC, and was used for feeding studies without further purification. […] More than 95% of the 2-acyl LPC DHA was converted to 1-acyl isomer under these conditions, as determined by LC/MS.

[10] = about 1 mg/kg per day for 15 days

Compound: docosahexaenoic acid-lysophosphatidylcholine [LPC-DHA]
- increase of DHA content in most regions of the brain (nmol of DHA per mg wet weight) ([1]; 1 mg DHA/day, 30 days): 2-3 fold
- percentage of DHA in plasma ([1]; % of total fatty acids, 1 mg DHA/day, 30 days): greater
- percentage of 16:0/22:6 PC ([2]; HDL and CM, LPC-DHA compared to free DHA absorption): significantly lower
- significant amount of free DHA in the lymph after infusion [2]: not observed
- increase in amount of DHA recovered in lymph HDL, compared to free DHA absorption ([2]; lymph HDL): > 2 fold
- hydrolysis in the intestinal lumen (intestinal contents after the 6 h lymph collection) ([2]; some experiments): no hydrolysis of LPC in the lumen
- percent of whole lymph DHA appearing in PC, LPC compared to free fatty acid ([2]; whole lymph): 5 times
- percent of whole lymph DHA appearing in PC ([2]; whole lymph, mean±SEM): 18.72±2.88% and 18%
- decrease in the latency to previous platform area, compared to the control or free DHA treated animals (normal adult mice; probe trial): 7 fold
- increase in the time spent in the target quadrant, compared to the control or free DHA treated animals (normal adult mice; probe trial): 2 fold
- brain uptake of injected compound compared with free DHA ([3]; kinetic studies [7]): higher
- efficiency of passing through the BBB compared with free fatty acid ([3]; previous studies in animals [5,6]): about 10 times

Compound: CCCCCCCCCCCCCCCC(=O)OCC(O)COP(=O)([O-])OCC[N+](C)(C)C (stereo not drawn) [16:0 LPC]
- recovery of 16:0 in lymph PC after infusion of 16:0 LPC [4]: 25-30%

Compound: eicosapenteanoic acid-lysophosphatidylcholine [LPC-EPA]
- BDNF levels in the brain (BDNF [5]): increased
- arachidonic acid in the brain, LPC-EPA versus free EPA [6]: decreased it more
- concentration of arachidonic acid in all tissues [6]: decreased
- enriching the total omega 3 fatty acids in the heart [6]: equally efficient
- all three n-3 fatty acids in the liver [7]: increased
- decrease in liver arachidonic acid level [7]: ~60%
- decrease of brain content of arachidonic acid [7]: ~40%
- increase of total amount of brain Omega 3 fatty acids (EPA+DPA+DHA) [7, 10]: about 90%
- increase of brain DHA content [7, 10]: 60%

Compound: CC/C=C\C/C=C\C/C=C\C/C=C\C/C=C\CCCC(=O)O [free EPA, eicosapentaenoic acid]
- enriching the total omega 3 fatty acids in the heart [6]: equally efficient
- omega 3 fatty acid content of adipose tissue [6]: enriched more
- omega 3 fatty acids in erythrocytes [6]: increased
- all three n-3 fatty acids in the liver [7]: increased
- decrease in liver arachidonic acid level [7]: ~60%
- decrease of brain content of arachidonic acid [7]: ~12%
- increase of brain EPA (in words) [7, 10]: to a small extent
- increase of total amount of brain Omega 3 fatty acids (EPA+DPA+DHA) [7, 10]: no change
- increase of brain DHA content [7, 10]: no effect

Compound: CC/C=C\C/C=C\C/C=C\C/C=C\C/C=C\C/C=C\CCC(=O)O [free DHA, (4Z,7Z,10Z,13Z,16Z,19Z)-docosa-4,7,10,13,16,19-hexaenoic acid, reference compound]
- DHA concentration and 22:6/20:4 ratio in adipose tissue ([1]; 1 mg DHA/day, 30 days): increase
- 20:4-22:6 PC in the hippocampus ([1]; LC/MS/MS): increased
- DHA-PC species in plasma ([1]; LC/MS/MS): not
- major species of DHA-PE in the hippocampus ([1]; LC/MS/MS): not
- plasma TAG species containing DHA ([1]; LC/MS/MS): increased more
- LPC DHA concentration of plasma ([1]; LC/MS/MS, 1 mg DHA/day, 30 days): not
- 22:6/20:4 ratio in brain regions ([1]; all regions of brain): no significant increase
- increase of brain DHA levels in normal adult mice ([1]; equal amount of DHA, 30 days): did not appreciably increase
- BDNF content in regions of the brain (BDNF [8]): no change
- percentage of 22:6/22:6/18:1 TAG species ([2]; HDL and CM, free DHA compared to LPC-DHA): significantly higher
- TAG species containing DHA at all 3 positions ([2]; free DHA compared to LPC-DHA absorption): significantly higher
- significant amount of free DHA in the lymph after infusion [2]: not observed
- latency time to the previous platform area (normal adult mice; second study, probe trial): 47.1 s
- time in the target quadrant (normal adult mice; second study, probe trial): 12 s

Compound: CC/C=C\C/C=C\C/C=C\C/C=C\C/C=C\C/C=C\CCC(=O)OC[C@@H](O)COP(=O)([O-])OCC[N+](C)(C)C [sn-1 DHA LPC]
- 18:1-22:6 PC in plasma, between the two LPC isomers ([1]; mouse, in vivo): greater increase
- 22:6/20:4 ratio in liver ([1]; mouse, in vivo): significantly increased
- DHA concentration in liver ([1]; mouse, in vivo): did not reach statistical significance
- enrichment of all the brain regions with DHA ([1]; mouse, in vivo): significantly enriched
- increase in plasma LPC DHA, sn-1 DHA LPC compared to sn-2 DHA LPC ([1]; mouse, in vivo): 28%
- increase of DHA content (nmol/mg) in striatum and amygdala ([1]; mouse, in vivo): did not reach statistical significance
- BDNF content in regions of the brain (BDNF [8]): significantly increased
- acquisition phase, learning the location of the platform by Day 5 (normal adult mice; second study): faster
- latency time to the previous platform area (normal adult mice; second study, probe trial): 12.7 s
- time in the target quadrant (normal adult mice; second study, probe trial): 29.9 s
- finding the previous platform area, faster than the control and free DHA groups (normal adult mice): 7 times
- time spent in the target quadrant versus control and free DHA groups (normal adult mice): twice as long

Compound: CC/C=C\C/C=C\C/C=C\C/C=C\C/C=C\C/C=C\CCC(=O)O[C@H](CO)COP(=O)([O-])OCC[N+](C)(C)C [sn-2 DHA LPC]
- 22:6/20:4 ratio in liver ([1]; 1 mg DHA/day, 30 days): increase
- DHA concentration in liver ([1]; 1 mg DHA/day, 30 days): significantly increased
- concentration of 20:4 in liver ([1]; 1 mg DHA/day, 30 days): parallel decrease
- enrichment of all the brain regions with DHA ([1]; cortex, cerebellum, hippocampus, striatum, amygdala, % of total fatty acids): significantly enriched
- BDNF content in regions of the brain (BDNF [8]): significantly increased
- finding the previous platform area, faster than the control and free DHA groups (normal adult mice): 7 times
- time spent in the target quadrant versus control and free DHA groups (normal adult mice): twice as long
- isomerization to the sn-1 isomer, compared with sn-2 16:0 LPC ([9]; physiological pH and temperature, unpublished results): much slower
- LPC remaining as sn-2 isomer ([9]; stored in chloroform: methanol (9:1) at −20° C., at least 4 weeks): Over 90%

Source: patent US10555957B2, “Methods and compositions for enriching DHA levels in the brain” (The Board of Trustees of the University of Illinois, a body …, priority 2017, dated 2020)
